{
  "source": "patent US10082510B2",
  "about": "“SRC-2 use as metabolic biomarker for diagnosis and treatment of metastatic prostate cancer” (Baylor College of Medicine, priority 2014, dated 2018)",
  "assay_type_in_all_cases": "cell-based, human",
  "key": {"[1]": {"tested_on": "SRC-2 protein in C4-2 cells", "assay": "Western blot of SRC-2 protein level after kinase inhibitor treatment", "details": "for SRC-2 protein level compared to DMSO-treated cells: Torin 250 nM, 12 hours", "description": "FIG. 4—Glutamine stimulation induces mTORC1-dependent SRC-2 transcriptional activity. (A) Western blot analysis of FASN, SCD, SRC-2 and actin in C4-2 stable cells—shNT, sh18 and sh19 grown in high glucose (11 mM)/low glutamine (0.2 mM) or low glucose (5 mM)/high glutamine (2 mM). Actin was used as a control to normalize the protein loading. Semiquantitative levels of each band were analyzed by densitometry using UVP Vision Works LS software and relative values (compared to shNT) normalized to actin are indicated numerically under each lane. (B) C4-2 cells were cultured in presence of high glucose (11 mM)/low glutamine (0.2 mM) or low glucose (5 mM)/high glutamine (2 mM) and then treated with kinase inhibitors: BEZ-235 (1 uM); Rapamycin (100 nM); Torin (250 nM); and Wortmannin (250 nM). Western blot analyses were performed to measure the stability of SRC-2 protein. Semi-quantitative levels of each band were analyzed by densitometry using UVP Vision Works LS software and relative values (compared to DMSO) normalized to actin are indicated numerically under each lane. (C) Immunoprecipitation of HA-SRC-2 followed by Western immunoblot to detect the phosphorylation status of SRC-2 using phospho-serine/threonine antibody. Input lysates were obtained from C4-2 cells expressing Adv.GFP or Adv. SRC-2, and subsequently stimulated with increasing concentration of glutamine—[…] followed by treatment with DMSO or mTORC1 inhibitor-Torin (250 nM). Actin was used to normalize the input loading. Semiquantitative levels of phospho-SRC-2 were analyzed by densitometry using UVP Vision Works LS software and relative values (compared to lane 2) normalized to actin are indicated numerically under each lane. (D) PC-3 cells expressing either Adv.GFP or Adv. SRC-2 were transfected with FASN-luc construct and stimulated with high glucose (11 mM)/low glutamine (0.2 mM) or high glutamine (2 mM)/low glucose (5 mM) followed by treatment with DMSO or Torin (250 nM). Lucifrease assay was then performed to measure the FASN promoter activity and data were normalized to total protein. […]"}, "C4-2 and PC-3 cells [2]": {"tested_on": "C4-2 and PC-3 cells", "assay": "Cell growth assay (Cellglo)", "details": "C4-2 and PC-3 shNT cells; BPTES 1 μM, 4 days", "description": "FIG. 6—SRC-2 is essential for prostate cancer cell survival. (A) Representative images depicting the growth of C4-2 stable cells—shNT, sh18 and sh19 in soft agar assay two weeks after plating. (B) Quantification of the total number of C4-2 stable cell colonies that survived after two weeks. (C) H&E stained sections of mouse lungs from experimental lung metastasis assay. Nude mice were injected with PC-3 cells stably expressing shNT, sh18 and sh19 via tail vein (n=7), and growth and survival of the cells in mouse lungs were analyzed after 5 weeks. (D) Quantification of Ki67 (antibody epitope reacts with human Ki67 protein) stained cells in the mouse lung sections from shNT, sh18 and sh19-injected animals. Refer Supplementary FIG. 14C. (E) Western blot analysis showing the expression levels of SRC-2, FASN, SCD and actin in C4-2 stable cells—shNT and sh19, and re-expression of SRC-2 in sh19 cells infected with Adv. SRC-2. Actin was used to normalize the protein loading. […]\nCells were seeded in 96-well plates in complete medium, and after the cells attached to the bottom surface they were incubated in nutrient-stressed medium. The cell growth was measured using Cellglo kit (Promega) according to manufacturer's instructions. […]"}, "C4-2 and PC-3 cells [3]": {"tested_on": "C4-2 and PC-3 cells", "assay": "Oxygen consumption rate (Seahorse XF24)", "details": "C4-2 and PC-3 stable cells; oligomycin 25-40 min time frame, FCCP 45-65 min time frame", "procedure": "(A) Real-time measurement of basal and maximal oxygen consumption rate (OCR) in C4-2 stable cells—shNT, sh18 and sh19. (B, C) Basal and maximal OCR in C4-2 stable cells—shNT, sh18 and sh19 were measured in DMSO control (B) or FCCP-treated (C) cells cultured in presence of high glucose (11 mM)/low glutamine (0.2 mM) or low glucose (5 mM)/high glutamine (2 mM). […] Data are graphed as the mean±s.e.m. *P<0.05, **P<0.001 by Student's t test.\n(A) Real-time measurement of basal and maximal oxygen consumption rate (OCR) in PC-3 stable cells—shNT, sh18, and sh19. (B, C) Basal and maximal OCR in PC-3 stable cells—shNT, sh18, and sh19 were measured in DMSO control or FCCP-treated cells cultured in presence of high glucose (11 mM)/low glutamine (0.2 mM) or low glucose (5 mM)/high glutamine (2 mM). […] Data are graphed as the mean±s.e.m. *P<0.05, **P<0.001 by Student's t test.\nThe oxygen consumption rate (OCR) was measured using a Seahorse Bioscience XF24 Extracellular Flux Analyzer according to manufacturer's protocol. Briefly, cells were seeded in triplicates at equal densities (25,000 cells per well) into XF24 tissue culture plates. […] Oxygen consumption was measured under basal conditions (DMSO), oligomycin and mitochondrial uncoupler trifluoromethoxy carbonyl cyanide phenyl 59ydrazine (FCCP) (2 mM) using the mito-stress kit (Seahorse Bioscience). […]"}, "SRC-2 mRNA in C4-2 cells": {"tested_on": "SRC-2 mRNA in C4-2 cells", "assay": "Quantitative real time PCR of SRC-2 messenger after kinase inhibitor treatment", "details": "Torin 250 nM", "description": "FIG. 13—Glutamine stimulation activates SRC-2 transcriptional functions in an mTORC1 dependent manner. (A) Quantitative real time PCR analysis of FASN, SCD and SRC-2 in C4-2 cells were treated with siGFP (control) or siSRC-2 and cultured in nutrient stressed conditions—high glucose (11 mM)/low glutamine (0.2 mM) or low glucose (5 mM)/high glutamine (2 mM). (B) Quantitative real time PCR analysis of SRC-2 in C4-2 cells expressing siGFP (control) or siSRC-2 and then treated with BEZ-235 (1 uM); Rapamycin (100 nM); Torin (250 nM); and Wortmannin (250 nM). (C) Western blot analysis showing the expression of phospho-S6K (p-S6K), phospho-4EBP1 (p-4EBP1) and actin in C4-2 cells stimulated with increasing concentration of glutamine followed by treatment with DMSO or mTORC1 inhibitor-Torin. Actin was used to normalize the protein loading.\nTotal mRNA was isolated from prostate cancer cells, tissues and tumors using the RNeasy Kit (QIAGEN). Reverse transcription was carried out using Superscript VILO cDNA synthesis kit (Invitrogen, CA) according to the manufacturer's instructions. For gene expression analysis, qPCR was performed using the Taqman system (Roche) with sequence-specific primers and the Universal Probe Library (Roche). […] Data was analyzed using the comparative Ct method (ΔΔCt). […] Data obtained was analyzed using RT^2 Profiler™ PCR Array Data Analysis software (SA Bioscineces, CA). […]"}, "[4]": {"tested_on": "SRC-2 serine/threonine phosphorylation in C4-2 cells", "assay": "Immunoprecipitation of HA-SRC-2 and phospho-serine/threonine immunoblot", "details": "C4-2 cells expressing Adv. SRC-2 (HA-SRC-2), glutamine stimulated; Torin 250 nM, 4 hours pre-treatment", "description": "(§1) FIG. 4—Glutamine stimulation induces mTORC1-dependent SRC-2 transcriptional activity. (A) Western blot analysis of FASN, SCD, SRC-2 and actin in C4-2 stable cells—shNT, sh18 and sh19 grown in high glucose (11 mM)/low glutamine (0.2 mM) or low glucose (5 mM)/high glutamine (2 mM). Actin was used as a control to normalize the protein loading. Semiquantitative levels of each band were analyzed by densitometry using UVP Vision Works LS software and relative values (compared to shNT) normalized to actin are indicated numerically under each lane. (B) C4-2 cells were cultured in presence of high glucose (11 mM)/low glutamine (0.2 mM) or low glucose (5 mM)/high glutamine (2 mM) and then treated with kinase inhibitors: BEZ-235 (1 uM); Rapamycin (100 nM); Torin (250 nM); and Wortmannin (250 nM). Western blot analyses were performed to measure the stability of SRC-2 protein. Semi-quantitative levels of each band were analyzed by densitometry using UVP Vision Works LS software and relative values (compared to DMSO) normalized to actin are indicated numerically under each lane. […] Semiquantitative levels of phospho-SRC-2 were analyzed by densitometry using UVP Vision Works LS software and relative values (compared to lane 2) normalized to actin are indicated numerically under each lane. […]"}, "[5]": {"tested_on": "SRC-2 protein stability in C4-2 cells", "assay": "Cycloheximide protein stability assay", "details": "high glutamine (2.0 mM), cycloheximide 0.5 mM, Torin 250 nM", "description": "FIG. 14—Glutamine-dependent mTORC1 phosphorylation controls SRC-2 protein stability. (A) C4-2 cells were cultured in presence of low glutamine (0.2 mM) and high glutamine (2.0 mM) followed by treatment with cycloheximide (0.5 mM) for indicated time points. Western blot showing the total-level of SRC-2 and actin was used as a loading control. (B) C4-2 cells were cultured in presence of high glutamine (2.0 mM) followed by either treatment with DMSO and Torin. Cycloheximide (0.5 mM) was then added to the cells for indicated time points. Western blot showing the total-level of SRC-2 and actin was used as a loading control.\nSRC-2 protein stability was studied by cycloheximide treatment experiments in C4-2 cells for different time points as described previously (Li C, Jo A, et al, 2011). C4-2 cells were cultured in low glutamine (0.2 mM) or high glutamine (2.0 mM) followed by treatment with cycloheximide (0.5 mM). For Torin treatment, C4-2 cells cultured in high glutamine were either treated with DMSO (vehicle-control) or Torin (250 nM) prior to cyclohexamide treatments. Cells were lysed followed by Western immunoblotting."}, "[6]": {"tested_on": "SRC-2 driven FASN-promoter activity in PC-3 cells", "assay": "FASN-luc luciferase reporter assay", "details": "PC-3 cells expressing Adv. SRC-2, high glutamine (2 mM)/low glucose (5 mM); Torin 250 nM", "description": "as §1, with “(B) C4-2 cells were cultured in presence of high glucose (11 mM)/low glutamine (0.2 mM) or low glucose (5 mM)/high glutamine (2 mM) and then treated with kinase inhibitors: BEZ-235 (1 uM); Rapamycin (100 nM); Torin (250 nM); and Wortmannin (250 nM). Western blot analyses were performed to measure the stability of SRC-2 protein.” left out\nLuciferase assays were performed using Luciferase Reporter Assay (Promega) and a Berthold 96 well plate reader. […]\nLuciferase promoter constructs were obtained from following sources: FASN-Addgene, SCD-Switchgear genomics and ZIP1—Peter Makhov (Fox Chase Cancer Center). […] Cells were harvested two days after transfection and luciferase assay performed using a Luciferase Reporter Assay (Promega) and a Berthold 96 well plate reader. […]"}, "[7]": {"tested_on": "recruitment of SRC-2 to the FASN and SCD promoters in C4-2 cells", "assay": "ChIP of SRC-2 on FASN and SCD promoters", "details": "glutamine stimulation (2 mM), Torin 250 nM"}},
  "data": [
    {"smiles": "Cn1c(=O)n(-c2ccc(C(C)(C)C#N)cc2)c2c3cc(-c4cnc5ccccc5c4)ccc3ncc21", "note": "[BEZ-235]", "values": [
      {"measurement": "SRC-2 protein stability", "setting": "[1]; either culture condition (high glucose/low glutamine or low glucose/high glutamine), BEZ-235 1 uM", "result": "failed to show any effect"}
    ]},
    {"smiles": "O=C(Cc1ccccc1)Nc1nnc(CCSCCc2nnc(NC(=O)Cc3ccccc3)s2)s1", "note": "[BPTES]", "values": [
      {"measurement": "Prostate cancer cell growth compared to DMSO", "setting": "C4-2 and PC-3 cells [2]", "result": "robust decrease"}
    ]},
    {"smiles": "N#CC(C#N)=NNc1ccc(OC(F)(F)F)cc1", "note": "[FCCP, Carbonyl cyanide 4-(trifluoromethoxy)phenylhydrazone]", "values": [
      {"measurement": "Oxygen consumption rate (OCR)", "setting": "C4-2 and PC-3 cells [3]", "result": "dramatically enhanced"}
    ]},
    {"smiles": "CCC(=O)N1CCN(c2ccc(-n3c(=O)ccc4cnc5ccc(-c6cnc7ccccc7c6)cc5c43)cc2C(F)(F)F)CC1", "note": "[Torin]", "values": [
      {"measurement": "SRC-2 protein level compared to DMSO-treated cells", "setting": "[1]; glutamine-stimulated (low glucose 5 mM/high glutamine 2 mM), Rapamycin 100 nM", "result": "down-regulated"},
      {"measurement": "SRC-2 protein level compared to DMSO-treated cells", "setting": "[1]; high glucose (11 mM)/low glutamine (0.2 mM), Wortmannin 250 nM", "result": "not observed"},
      {"measurement": "SRC-2 messenger expression", "setting": "SRC-2 mRNA in C4-2 cells", "result": "without any appreciable change"},
      {"measurement": "Glutamine-induced SRC-2-serine/threonine phosphorylation", "setting": "[4]", "result": "reversed"},
      {"measurement": "Glutamine-increased SRC-2 protein stability (cycloheximide time course)", "setting": "[5]", "result": "completely suppressed"},
      {"measurement": "Glutamine dependent SRC-2 driven FASN-promoter activity", "setting": "[6]", "result": "significantly blocked"},
      {"measurement": "Glutamine dependent recruitment of SRC-2 to the FASN and SCD promoters", "setting": "[7]", "result": "significantly blocked"}
    ]},
    {"smiles": "CC[C@H]1/C=C/C=C/C[C@@H](C)[C@H](O)[C@@](C)(O)C(=O)[C@@H](C)[C@H](O)[C@@H](C)C(=O)[C@@H](C)[C@H](O)[C@@H](C)/C=C/C(=O)O[C@@H]2[C@H](C)[C@H](CC1)O[C@]1(CC[C@H](C)[C@H](C[C@@H](C)O)O1)[C@H]2C", "note": "[oligomycin]", "values": [
      {"measurement": "Oxygen consumption rate (OCR)", "setting": "C4-2 and PC-3 cells [3]", "result": "decreased the oxygen consumption"}
    ]}
  ]
}
